The values below come from patent US10093656B2, “Fused-ring or tricyclic aryl pyrimidine compound used as kinase inhibitor” (NANJING SANHOME PHARMACEUTICAL CO., LTD, priority 2015, dated 2018).

In one experiment the target is T1, EGFR wild type (Homo sapiens, UniProt P00533).
T1 construct: purchased Life technology (Madison, Wis.)
Nature of the experiment: Wild-type EGFR enzyme HTRF inhibition assay. Format: biochemical. The note with it: 25 μM ATP, read-out: EGFR WT IC50. The procedure, abridged:
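HTRF with 0.05 nM wild-type EGFR, 1 μM biotin-TK1 peptide, 25 μM ATP, 60 min at 23° C; detected with Eu-anti-TK1 antibody 2 nM and XL665 62.5 nM, 60 min at 23° C. Ten 3-fold doses, 300 nM to 0.015 nM final; IC50 by four-parameter fit of % inhibition.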

A further experiment concerns the target T2, EGFR T790M/L858R (Homo sapiens, UniProt P00533, L858R/T790M).
T2 construct: purchased Life technology (Madison, Wis.)
Nature of the experiment: EGFR T790M/L858R enzyme HTRF inhibition assay. In kind it is biochemical. The note with it: 20 μM ATP, read-out: EGFR L858R/T79M IC50. The procedure, abridged:
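HTRF assay with 0.04 nM enzyme, 1 μM biotin-TK1 peptide and 20 μM ATP, 60 min at 23° C. Product detected with Eu-anti-TK1 antibody/XL665 (60 min at 23° C); compound at 10 doses, 300 nM to 0.015 nM final. IC50 from four-parameter fit.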

The target of a further experiment is T3, EGFR d746-750/T790M (Homo sapiens, UniProt P00533, DEL746-750/T790M).
T3 construct: purchased Carna Biosciences (Japan)
T3 sequence (P00533 with tags, fused parts or gaps DEL746-750/T790M limits assumed): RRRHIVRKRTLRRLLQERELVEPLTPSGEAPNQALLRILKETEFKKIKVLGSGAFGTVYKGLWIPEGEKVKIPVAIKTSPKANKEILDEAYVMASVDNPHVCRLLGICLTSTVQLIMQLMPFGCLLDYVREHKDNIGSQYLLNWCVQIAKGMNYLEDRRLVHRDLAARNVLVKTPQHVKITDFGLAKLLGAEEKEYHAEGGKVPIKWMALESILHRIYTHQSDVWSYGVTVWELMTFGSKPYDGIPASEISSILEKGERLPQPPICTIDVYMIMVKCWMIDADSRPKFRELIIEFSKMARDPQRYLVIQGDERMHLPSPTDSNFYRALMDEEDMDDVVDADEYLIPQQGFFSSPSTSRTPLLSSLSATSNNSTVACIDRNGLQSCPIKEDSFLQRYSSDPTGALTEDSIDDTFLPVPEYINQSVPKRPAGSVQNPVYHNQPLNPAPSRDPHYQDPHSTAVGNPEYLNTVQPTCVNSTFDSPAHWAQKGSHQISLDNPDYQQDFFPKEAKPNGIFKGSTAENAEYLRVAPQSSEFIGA
The experiment is described as follows: EGFR d746-750/T790M enzyme HTRF inhibition assay. In kind it is biochemical. The note with it: 40 μM ATP. The procedure, abridged: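 0.025 nM enzyme with 1 μM biotin-TK1 peptide and 40 μM ATP, 60 min at 23° C; compound tested at 10 doses, 300 nM to 0.015 nM final. HTRF read (Eu-anti-TK1 antibody 2 nM, XL665 62.5 nM, 60 min at 23° C); IC50 from four-parameter fit of % inhibition.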

For experiment [1], the system named is NCI-H1975 cells EGFR L858R/T790M. The experiment is described as follows: NCI-H1975 cell viability assay (Cell Titer-Glo, 6 days). Format: cell-based. The conditions noted are these: Homo sapiens, 144 h. The procedure, abridged:
(§1)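 A431 (EGFR WT) and NCI-H1975 (EGFR L858R/T790M) cells treated for 6 days at 37° C, in duplicate with 10 three-fold doses from 10 μM to 0.508 nM final. Viability read as CellTiter-Glo luminescence. IC50 from four-parameter fit of % inhibition.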

Another experiment deals with A431 cells EGFR WT. The experiment is described as follows: A431 cell viability assay (Cell Titer-Glo, 6 days). Format: cell-based, human. The procedure, abridged: as §1
Experiment [2] concerns human skin squamous cell A431 xenograft (CDX). The experiment is described as follows: Selectivity study in vivo, A431 xenograft (CDX) model. Details: species or system BALB/c nude mice. The note with it: Table 5 experiment, AZD9291 5 mg/kg.

T2 sequence (P00533 25-1210 T790M/L858R): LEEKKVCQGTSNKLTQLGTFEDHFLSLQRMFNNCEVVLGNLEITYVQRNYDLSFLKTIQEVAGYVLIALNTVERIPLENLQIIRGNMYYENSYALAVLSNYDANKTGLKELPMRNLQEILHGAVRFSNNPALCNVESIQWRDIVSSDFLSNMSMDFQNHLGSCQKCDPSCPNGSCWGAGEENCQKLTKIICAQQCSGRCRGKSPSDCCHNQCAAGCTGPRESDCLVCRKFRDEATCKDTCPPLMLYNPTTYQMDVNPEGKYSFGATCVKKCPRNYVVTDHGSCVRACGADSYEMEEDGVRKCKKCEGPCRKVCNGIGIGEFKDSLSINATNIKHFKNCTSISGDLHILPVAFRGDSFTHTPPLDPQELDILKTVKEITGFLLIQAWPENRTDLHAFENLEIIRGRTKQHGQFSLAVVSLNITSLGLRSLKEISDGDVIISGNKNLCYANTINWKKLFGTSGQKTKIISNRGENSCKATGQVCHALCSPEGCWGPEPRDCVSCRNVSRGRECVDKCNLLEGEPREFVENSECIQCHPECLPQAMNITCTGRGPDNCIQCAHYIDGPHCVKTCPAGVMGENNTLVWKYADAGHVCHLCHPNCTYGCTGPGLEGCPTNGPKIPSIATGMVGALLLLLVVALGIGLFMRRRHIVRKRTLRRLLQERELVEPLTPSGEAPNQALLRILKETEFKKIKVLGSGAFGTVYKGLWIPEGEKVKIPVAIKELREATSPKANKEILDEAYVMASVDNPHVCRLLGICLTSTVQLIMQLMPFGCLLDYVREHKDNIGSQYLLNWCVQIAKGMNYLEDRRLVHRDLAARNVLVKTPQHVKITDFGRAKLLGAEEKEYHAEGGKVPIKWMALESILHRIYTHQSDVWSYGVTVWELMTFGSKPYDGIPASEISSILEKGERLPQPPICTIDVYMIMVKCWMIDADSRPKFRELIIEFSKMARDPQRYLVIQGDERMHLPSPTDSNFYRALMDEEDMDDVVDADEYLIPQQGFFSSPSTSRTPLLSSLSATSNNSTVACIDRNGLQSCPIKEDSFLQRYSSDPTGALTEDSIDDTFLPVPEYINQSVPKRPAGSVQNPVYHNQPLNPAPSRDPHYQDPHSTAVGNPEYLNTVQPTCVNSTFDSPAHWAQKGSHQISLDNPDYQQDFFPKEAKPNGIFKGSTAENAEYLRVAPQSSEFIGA
T1 sequence (P00533 25-1210): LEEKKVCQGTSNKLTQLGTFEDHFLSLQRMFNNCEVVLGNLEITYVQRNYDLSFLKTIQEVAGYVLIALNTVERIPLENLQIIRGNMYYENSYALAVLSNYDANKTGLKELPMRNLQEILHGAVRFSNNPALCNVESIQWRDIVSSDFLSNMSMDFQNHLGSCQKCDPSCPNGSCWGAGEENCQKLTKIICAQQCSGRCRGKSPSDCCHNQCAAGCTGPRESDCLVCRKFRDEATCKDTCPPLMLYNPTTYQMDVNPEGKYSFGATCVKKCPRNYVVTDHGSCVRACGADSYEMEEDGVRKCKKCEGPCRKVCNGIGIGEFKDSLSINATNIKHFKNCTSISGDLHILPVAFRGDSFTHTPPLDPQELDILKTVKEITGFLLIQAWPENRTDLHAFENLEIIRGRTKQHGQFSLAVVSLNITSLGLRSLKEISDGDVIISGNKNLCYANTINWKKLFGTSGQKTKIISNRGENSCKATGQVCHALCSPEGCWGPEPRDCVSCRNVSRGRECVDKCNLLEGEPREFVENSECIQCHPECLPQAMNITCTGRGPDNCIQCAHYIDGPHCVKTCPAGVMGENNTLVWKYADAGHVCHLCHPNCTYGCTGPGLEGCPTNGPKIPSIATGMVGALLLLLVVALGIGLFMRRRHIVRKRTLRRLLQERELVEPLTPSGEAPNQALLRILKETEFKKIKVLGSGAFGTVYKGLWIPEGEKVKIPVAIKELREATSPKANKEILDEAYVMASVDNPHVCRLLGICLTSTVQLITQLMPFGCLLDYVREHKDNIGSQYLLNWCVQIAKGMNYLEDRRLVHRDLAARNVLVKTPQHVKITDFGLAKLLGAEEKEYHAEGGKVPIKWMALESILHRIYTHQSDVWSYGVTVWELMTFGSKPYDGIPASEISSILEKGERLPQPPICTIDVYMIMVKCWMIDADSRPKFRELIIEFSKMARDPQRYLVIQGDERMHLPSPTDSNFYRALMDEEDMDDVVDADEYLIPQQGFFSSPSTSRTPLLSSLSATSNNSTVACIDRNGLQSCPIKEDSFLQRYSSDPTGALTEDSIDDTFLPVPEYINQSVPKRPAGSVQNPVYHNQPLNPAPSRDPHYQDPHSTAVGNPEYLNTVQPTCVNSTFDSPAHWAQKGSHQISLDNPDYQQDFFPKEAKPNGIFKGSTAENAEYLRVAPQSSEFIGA

Take `C=CC(=O)Nc1cc(Nc2ncc(F)c(-c3c4n(c5cc(F)ccc35)CCOC4)n2)c(OC)cc1N(C)CCN(C)C` [Embodiment 33, N-(2-((2-(Dimethylamino)ethyl)(methyl)amino)-5-((5-fluoro-4-(7-fluoro-3,4-dihydro-1H-[1,4]oxazino[4,3-a]indol-10-yl)pyrimidin-2-yl)amino)-4-methoxyphenyl)acrylamide]: the IC50 on EGFR wild type amounted to 2.6 nM; on EGFR T790M/L858R, 0.5 nM; on EGFR d746-750/T790M, 0.4 nM; in experiment [1], 90 nM; in the experiment on A431 cells EGFR WT (Homo sapiens, A-431, 144 h, A431 cells, 6 days), 693 nM. Also, the “A431:NCI-H1975 (ratio)” value in the experiment on A431 cells EGFR WT (ratio of cell IC50 A431 to NCI-H1975) is listed as 7.7. Besides, in experiment [2] (day 4, oral once daily: 33, 34, 40, 42, 43 20 mg/kg), the “Tumor Volume (mm^3) 4 days” value was 202 mm^3. In addition, the “Tumor Volume (mm^3) 11 days” value in experiment [2] (day 11, oral once daily: 33, 34, 40, 42, 43 20 mg/kg) is on record as 428 mm^3. The “Tumor Volume (mm^3) 18 days” value in experiment [2] (day 18, oral once daily: 33, 34, 40, 42, 43 20 mg/kg) stood at 930 mm^3.
